Paper PMC9945182 (Chemical Research in Toxicology, 2023)
Where two headings read alike, the source gives them in different places.

Assays:
[1] = biological target: T1, CYP2A6 (Homo sapiens, UniProt P11509); assay type: biochemical; conditions: for IC50: nicotine 100 μM, rec CYP2A6 microsomes; for inhibition of cotinine formation: nicotine substrate, CYP2A6 microsomes, vs 100% activity control
T1 sequence (P11509 1-494): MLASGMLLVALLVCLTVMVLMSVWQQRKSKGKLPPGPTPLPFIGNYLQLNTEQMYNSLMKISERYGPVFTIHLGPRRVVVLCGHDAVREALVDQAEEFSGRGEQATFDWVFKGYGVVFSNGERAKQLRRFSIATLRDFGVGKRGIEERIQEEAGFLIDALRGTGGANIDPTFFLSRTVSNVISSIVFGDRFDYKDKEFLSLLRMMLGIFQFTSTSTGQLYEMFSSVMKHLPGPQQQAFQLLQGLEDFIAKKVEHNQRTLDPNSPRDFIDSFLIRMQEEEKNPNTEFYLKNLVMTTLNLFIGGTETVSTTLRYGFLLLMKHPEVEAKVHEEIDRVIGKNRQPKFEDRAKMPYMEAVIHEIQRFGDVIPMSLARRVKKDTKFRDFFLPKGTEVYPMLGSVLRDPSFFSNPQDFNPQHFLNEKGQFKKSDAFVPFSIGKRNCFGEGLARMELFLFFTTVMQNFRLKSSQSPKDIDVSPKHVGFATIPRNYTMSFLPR

[2] = biological target: T2, CYP2B6 (Homo sapiens, UniProt P20813); assay type: biochemical; conditions: for inhibition of cotinine formation: nicotine substrate, CYP2B6 microsomes
T2 sequence (P20813 1-491): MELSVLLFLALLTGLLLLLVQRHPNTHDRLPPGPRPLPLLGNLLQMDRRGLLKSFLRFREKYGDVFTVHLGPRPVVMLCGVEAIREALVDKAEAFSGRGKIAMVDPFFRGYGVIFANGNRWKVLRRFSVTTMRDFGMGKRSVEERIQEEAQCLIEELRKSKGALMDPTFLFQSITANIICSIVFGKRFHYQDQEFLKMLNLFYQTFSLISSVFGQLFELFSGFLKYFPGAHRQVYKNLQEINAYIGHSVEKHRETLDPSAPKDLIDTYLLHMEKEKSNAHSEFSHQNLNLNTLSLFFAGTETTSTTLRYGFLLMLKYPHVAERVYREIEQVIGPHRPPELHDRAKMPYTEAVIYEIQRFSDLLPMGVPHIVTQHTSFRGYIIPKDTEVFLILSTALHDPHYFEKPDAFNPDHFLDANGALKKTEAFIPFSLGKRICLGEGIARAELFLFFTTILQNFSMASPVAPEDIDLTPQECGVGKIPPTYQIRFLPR

[3] = tested on: human liver microsomes (HLM); test: Inhibition of cotinine to 3HC formation in pooled human liver microsomes; assay type: biochemical; conditions: cotinine 900 μM
[4] = tested on: human liver microsomes (HLM); test: Inhibition of nicotine to nornicotine formation in pooled human liver microsomes; assay type: biochemical; conditions: nicotine 500 μM
[5] = biological target: T3, FMO1 (Homo sapiens, UniProt Q01740); assay type: biochemical; conditions: 1 or 10 μM cannabinoid; nicotine 1 mM; FMO1 microsomes
T3 sequence (Q01740 1-532): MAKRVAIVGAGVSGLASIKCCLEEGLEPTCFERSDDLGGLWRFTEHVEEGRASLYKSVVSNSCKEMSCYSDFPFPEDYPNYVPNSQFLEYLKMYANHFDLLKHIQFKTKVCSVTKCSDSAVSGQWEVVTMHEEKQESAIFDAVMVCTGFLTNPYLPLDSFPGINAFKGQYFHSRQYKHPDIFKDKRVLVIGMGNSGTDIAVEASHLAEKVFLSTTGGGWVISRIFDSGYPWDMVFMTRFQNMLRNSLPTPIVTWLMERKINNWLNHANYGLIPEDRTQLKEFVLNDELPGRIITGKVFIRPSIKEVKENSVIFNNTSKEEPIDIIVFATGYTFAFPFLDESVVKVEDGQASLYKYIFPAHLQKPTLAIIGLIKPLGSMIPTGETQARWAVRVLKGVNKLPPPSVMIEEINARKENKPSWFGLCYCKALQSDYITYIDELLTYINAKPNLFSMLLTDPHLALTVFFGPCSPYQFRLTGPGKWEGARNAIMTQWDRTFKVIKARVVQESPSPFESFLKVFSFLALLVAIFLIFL

[6] = biological target: T4, UGT2B10 (Homo sapiens, UniProt P36537); assay type: biochemical; conditions: UGT2B10 microsomes; nicotine or cotinine as substrate; screening
T4 sequence (P36537 24-528): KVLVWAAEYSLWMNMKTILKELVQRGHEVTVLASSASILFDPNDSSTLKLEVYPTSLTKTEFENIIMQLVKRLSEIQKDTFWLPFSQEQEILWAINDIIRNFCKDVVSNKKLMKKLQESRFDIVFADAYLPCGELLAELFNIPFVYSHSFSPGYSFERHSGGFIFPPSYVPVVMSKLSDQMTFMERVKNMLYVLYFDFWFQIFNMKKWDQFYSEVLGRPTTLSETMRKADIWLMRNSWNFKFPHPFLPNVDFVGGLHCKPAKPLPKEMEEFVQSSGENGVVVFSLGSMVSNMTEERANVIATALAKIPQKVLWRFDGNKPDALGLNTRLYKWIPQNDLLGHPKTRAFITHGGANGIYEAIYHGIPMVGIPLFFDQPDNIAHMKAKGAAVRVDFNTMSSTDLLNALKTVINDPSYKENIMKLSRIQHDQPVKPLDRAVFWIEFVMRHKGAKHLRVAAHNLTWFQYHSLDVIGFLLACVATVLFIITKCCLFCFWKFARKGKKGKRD

[7] = biological target: T5, UGT1A4 (Homo sapiens, UniProt P22310); assay type: biochemical; conditions: UGT1A4 microsomes; nicotine or cotinine as substrate; screening
T5 sequence (P22310 29-534): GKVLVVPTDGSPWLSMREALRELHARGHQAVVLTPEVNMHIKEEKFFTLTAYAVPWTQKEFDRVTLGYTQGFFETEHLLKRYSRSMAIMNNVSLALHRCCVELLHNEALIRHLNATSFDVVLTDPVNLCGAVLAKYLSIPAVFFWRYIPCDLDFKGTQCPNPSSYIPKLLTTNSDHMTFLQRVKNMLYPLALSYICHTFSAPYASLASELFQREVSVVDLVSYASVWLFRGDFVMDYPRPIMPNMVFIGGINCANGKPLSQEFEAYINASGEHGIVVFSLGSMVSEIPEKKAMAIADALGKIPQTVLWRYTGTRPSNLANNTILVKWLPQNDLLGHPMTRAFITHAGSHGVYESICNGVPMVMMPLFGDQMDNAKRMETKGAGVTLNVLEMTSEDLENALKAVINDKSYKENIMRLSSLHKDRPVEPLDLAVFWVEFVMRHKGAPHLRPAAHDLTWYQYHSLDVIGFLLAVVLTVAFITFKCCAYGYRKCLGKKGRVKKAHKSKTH

[8] = cited from earlier work; for physiological levels in the plasma corrected for plasma protein binding: after a single clinical dose of CBD
[9] = human, microsomes from CYP2B6-overexpressing HEK293 cells, pH 7.4, probe nicotine (cotinine formation)
[10] = single dose regimen of Epidiolex (6000 mg)

Structure (SMILES): C=C(C)[C@@H]1CCC(C)=C[C@H]1c1c(O)cc(CCCCC)cc1O [CBD, cannabidiol]
- IC50 ([1]; IC50, cotinine formation, mean ± SD of three experiments): 4.4 ± 1 µM
- IC50 ([1]; IC50,u (binding-corrected IC50), cotinine formation, IC50 × fu,inc): 0.27 ± 0.06 µM
- IC50 [2]: 4.2 ± 2.7 µM
- inhibition at 30 min, 1 µM [2, 9]: 50%
- inhibition at 30 min, 10 µM [2, 9]: 65%
- IC50 [3]: 8.8 ± 1.3 µM
- IC50 [4]: 5.1 ± 1.1 µM
- inhibitory effect on NOX formation [5]: No inhibitory effect
- inhibition of nicotine-Gluc or cotinine-Gluc formation [6]: no significant inhibition
- inhibition of nicotine-Gluc or cotinine-Gluc formation [7]: no significant inhibition
- physiological levels in the plasma corrected for plasma protein binding [8]: 0.06–0.15 μM
- Cmax ([8]; read-out: plasma Cmax (maximum concentration), total, single dose regimen of Epidiolex (6000 mg)): 2500 nM
- calculated unbound plasma Cmax [8, 10]: 75 nM

Structure (SMILES): C=C(C)[C@@H]1CCC(CO)=C[C@H]1c1c(O)cc(CCCCC)cc1O [7-OH-CBD, 7-hydroxy-cannabidiol]
- inhibition of cotinine formation ([1]; 1 μM inhibitor): 50%
- inhibition of cotinine formation ([1]; 10 μM inhibitor): 75%
- IC50 ([1]; cotinine formation, mean ± SD of three experiments): 5.8 ± 2.3 µM
- IC50 ([1]; read-out: IC50,u (binding-corrected IC50), cotinine formation, IC50 × fu,inc): 0.45 ± 0.18 µM
- inhibition of cotinine formation ([2]; 1 μM inhibitor): 35%
- inhibition of cotinine formation ([2]; 10 μM inhibitor): 50%
- IC50 ([2]; cotinine formation, nicotine 500 μM, rec CYP2B6 microsomes): 15 ± 5.7 µM
- IC50 [3]: 9.1 ± 3.4 µM
- IC50 [4]: 7.9 ± 2.5 µM
- inhibitory effect on NOX formation [5]: No inhibitory effect
- inhibition of nicotine-Gluc or cotinine-Gluc formation [6]: no significant inhibition
- inhibition of nicotine-Gluc or cotinine-Gluc formation [7]: no significant inhibition
- physiological levels in the plasma corrected for plasma protein binding [8]: 0.04–0.09 μM
- calculated unbound plasma Cmax [8, 10]: 93.6 nM
